The numbers were not newly measured in patent publication US20130331575A1, “Method for resolution of 4-((1R,3S)-6-chloro-3-phenyl-indan-1-yl)-1,2,2-trimethyl-piperazine and 1-((1R,3S)-6-chloro-3-phenyl-indan-1-yl)-3,3-dimethyl-piperazine” (priority 2011, published 2013), which cites them from elsewhere.

Each structure is given as a SMILES string.

One data set concerns the target D2 (Homo sapiens, UniProt P14416). The settings on record: in vitro.
In another data set the test system is D1 and D2. The settings on record: in vivo.
The target in the next data set is 5-HT2 (Homo sapiens, UniProt P28223).
A further data set concerns the target D1 (Homo sapiens, UniProt P21728). The settings on record: in vitro.

Chain of D1 (P21728 whole entry): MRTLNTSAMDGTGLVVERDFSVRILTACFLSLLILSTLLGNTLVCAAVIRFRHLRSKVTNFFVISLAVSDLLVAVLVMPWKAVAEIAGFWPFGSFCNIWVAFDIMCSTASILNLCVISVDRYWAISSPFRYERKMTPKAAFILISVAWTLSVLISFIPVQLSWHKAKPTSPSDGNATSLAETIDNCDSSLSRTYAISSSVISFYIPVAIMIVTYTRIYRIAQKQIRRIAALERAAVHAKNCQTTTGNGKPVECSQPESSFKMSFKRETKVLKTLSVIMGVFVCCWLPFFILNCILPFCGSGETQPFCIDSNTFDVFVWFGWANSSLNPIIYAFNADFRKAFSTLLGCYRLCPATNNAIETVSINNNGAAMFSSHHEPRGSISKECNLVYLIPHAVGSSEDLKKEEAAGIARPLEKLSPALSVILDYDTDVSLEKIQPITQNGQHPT
Chain of D2 (P14416 whole entry): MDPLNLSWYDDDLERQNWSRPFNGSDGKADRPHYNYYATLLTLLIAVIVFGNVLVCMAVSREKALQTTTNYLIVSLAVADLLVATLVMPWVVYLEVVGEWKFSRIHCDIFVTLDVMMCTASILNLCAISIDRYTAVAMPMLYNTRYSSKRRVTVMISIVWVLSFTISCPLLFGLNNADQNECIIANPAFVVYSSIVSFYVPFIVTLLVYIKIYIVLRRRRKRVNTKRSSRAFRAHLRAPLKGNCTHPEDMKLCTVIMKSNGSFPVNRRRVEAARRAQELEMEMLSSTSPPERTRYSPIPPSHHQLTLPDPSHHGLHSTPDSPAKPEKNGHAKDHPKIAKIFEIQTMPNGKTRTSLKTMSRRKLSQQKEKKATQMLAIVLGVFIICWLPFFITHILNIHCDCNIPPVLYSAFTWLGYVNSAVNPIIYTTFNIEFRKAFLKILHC
Chain of 5-HT2 (P28223 whole entry, species assumed): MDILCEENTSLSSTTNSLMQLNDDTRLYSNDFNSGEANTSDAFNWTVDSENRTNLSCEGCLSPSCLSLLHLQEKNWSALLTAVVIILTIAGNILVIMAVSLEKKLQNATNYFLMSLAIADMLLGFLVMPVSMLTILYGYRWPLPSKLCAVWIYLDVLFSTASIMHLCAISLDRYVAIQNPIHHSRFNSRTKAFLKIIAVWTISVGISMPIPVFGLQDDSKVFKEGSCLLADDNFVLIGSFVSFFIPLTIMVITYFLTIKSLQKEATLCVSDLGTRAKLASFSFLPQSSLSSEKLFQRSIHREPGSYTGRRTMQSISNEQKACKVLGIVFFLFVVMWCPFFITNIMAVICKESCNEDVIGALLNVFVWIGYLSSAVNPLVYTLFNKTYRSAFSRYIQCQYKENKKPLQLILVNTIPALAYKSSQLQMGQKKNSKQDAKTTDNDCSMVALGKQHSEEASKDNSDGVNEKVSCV

Take `CN1CCN([C@@H]2C[C@@H](c3ccccc3)c3ccc(Cl)cc32)CC1(C)C` [Compound (I), 4-((1R,3S)-6-chloro-3-phenyl-indan-1-yl)-1,2,2-trimethyl-piperazine]: the D2 antagonist potency entry at D2 is “potent”. The “relative potency as D1 and D2 antagonist” value with D1 and D2 is “equipotent as D1 and D2 antagonist”. Further, on 5-HT2, the 5-HT2 antagonist potency result is “potent 5-HT2 antagonist”. In addition, the “affinity for α1 adrenoceptors” value in the data set with α1 adrenoceptors is given as “high affinity”. At D1, the D1 antagonist potency result is “potent” and the “D1 versus D2 selectivity” value was “some D1 selectivity”.
